Test results from US11149037B2, “Pyrazole MAGL inhibitors” (H. Lundbeck A/S, priority 2017, dated 2021).

How the values were obtained:
Type in all cases: biochemical
[1] = biological target: FAAH (Homo sapiens (Human), UniProt O00519); test: In vitro competitive activity-based protein profiling, human proteomes (prefrontal cortex or PC3 cell membrane fractions); settings: human proteome; for inhibition at 1 µM: read-out: FAAH % inh. 1 μM (human)
Method in brief: (§1)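 Activity of MAGL and FAAH was quantified from fluorescent gel band intensities. Beforehand, inhibitors at several concentrations competed against subsequent probe labelling (FP-Rh, JW912 or HT-01) in species-matched proteomes, each step 30 min at 37° C.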

[2] = biological target: MAGL (Homo sapiens (Human), UniProt Q99685); test: as above; settings: human proteome; for inhibition at 1 µM: read-out: MAGL % inh. 1 μM (human); for inhibition at 10 µM: read-out: MAGL % inh. (human) @ 10 μM; for inhibition at 50 µM: read-out: MAGL % inh. (human) @ 50 μM
MAGL (Homo sapiens (Human), UniProt Q99685), sequence (Q99685 whole entry): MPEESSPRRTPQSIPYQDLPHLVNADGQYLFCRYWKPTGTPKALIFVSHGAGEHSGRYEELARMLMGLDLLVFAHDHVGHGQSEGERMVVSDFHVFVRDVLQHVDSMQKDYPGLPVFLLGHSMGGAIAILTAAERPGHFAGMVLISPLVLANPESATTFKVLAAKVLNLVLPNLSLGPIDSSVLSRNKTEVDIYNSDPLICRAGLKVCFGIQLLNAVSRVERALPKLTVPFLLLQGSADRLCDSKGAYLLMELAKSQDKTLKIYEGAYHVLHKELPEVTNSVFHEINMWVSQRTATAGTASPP
Method in brief: as §1

[3] = biological target: FAAH (Mus musculus (Mouse), UniProt O08914); test: In vitro competitive activity-based protein profiling, mouse proteomes (brain membrane fraction or cell lysates); settings: mouse proteome, read-out: FAAH % inh. 1 μM (mouse)
FAAH (Mus musculus (Mouse), UniProt O08914), sequence (O08914 whole entry): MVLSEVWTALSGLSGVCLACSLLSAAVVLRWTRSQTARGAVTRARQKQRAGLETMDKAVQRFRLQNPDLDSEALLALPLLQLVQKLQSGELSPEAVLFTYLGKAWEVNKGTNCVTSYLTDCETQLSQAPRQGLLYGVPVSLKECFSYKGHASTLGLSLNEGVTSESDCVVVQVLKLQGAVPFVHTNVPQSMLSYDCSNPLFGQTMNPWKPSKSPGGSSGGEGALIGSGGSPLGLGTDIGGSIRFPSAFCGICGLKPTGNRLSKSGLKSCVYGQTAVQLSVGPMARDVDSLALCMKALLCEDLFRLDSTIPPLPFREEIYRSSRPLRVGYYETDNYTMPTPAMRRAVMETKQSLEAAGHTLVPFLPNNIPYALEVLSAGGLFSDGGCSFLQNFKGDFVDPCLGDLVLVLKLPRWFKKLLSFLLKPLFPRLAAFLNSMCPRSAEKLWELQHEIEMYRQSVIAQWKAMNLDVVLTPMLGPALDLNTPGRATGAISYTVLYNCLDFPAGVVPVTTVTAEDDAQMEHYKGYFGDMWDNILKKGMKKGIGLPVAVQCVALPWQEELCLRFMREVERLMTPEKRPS
Method in brief: as §1

[4] = biological target: MAGL (Mus musculus (Mouse), UniProt O35678); test: as above; settings: mouse proteome, read-out: MAGL % inh. 1 μM (mouse)
MAGL (Mus musculus (Mouse), UniProt O35678), sequence (O35678 whole entry): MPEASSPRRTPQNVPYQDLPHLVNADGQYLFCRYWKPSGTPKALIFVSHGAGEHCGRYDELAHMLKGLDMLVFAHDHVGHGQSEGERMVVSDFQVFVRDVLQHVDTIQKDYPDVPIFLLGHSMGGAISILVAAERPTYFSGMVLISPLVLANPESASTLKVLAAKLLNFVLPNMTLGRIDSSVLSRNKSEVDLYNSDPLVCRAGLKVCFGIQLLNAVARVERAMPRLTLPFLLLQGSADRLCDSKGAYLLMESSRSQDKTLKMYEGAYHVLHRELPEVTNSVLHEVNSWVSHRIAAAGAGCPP
Method in brief: as §1

FAAH (Homo sapiens (Human), UniProt O00519), sequence (O00519 whole entry): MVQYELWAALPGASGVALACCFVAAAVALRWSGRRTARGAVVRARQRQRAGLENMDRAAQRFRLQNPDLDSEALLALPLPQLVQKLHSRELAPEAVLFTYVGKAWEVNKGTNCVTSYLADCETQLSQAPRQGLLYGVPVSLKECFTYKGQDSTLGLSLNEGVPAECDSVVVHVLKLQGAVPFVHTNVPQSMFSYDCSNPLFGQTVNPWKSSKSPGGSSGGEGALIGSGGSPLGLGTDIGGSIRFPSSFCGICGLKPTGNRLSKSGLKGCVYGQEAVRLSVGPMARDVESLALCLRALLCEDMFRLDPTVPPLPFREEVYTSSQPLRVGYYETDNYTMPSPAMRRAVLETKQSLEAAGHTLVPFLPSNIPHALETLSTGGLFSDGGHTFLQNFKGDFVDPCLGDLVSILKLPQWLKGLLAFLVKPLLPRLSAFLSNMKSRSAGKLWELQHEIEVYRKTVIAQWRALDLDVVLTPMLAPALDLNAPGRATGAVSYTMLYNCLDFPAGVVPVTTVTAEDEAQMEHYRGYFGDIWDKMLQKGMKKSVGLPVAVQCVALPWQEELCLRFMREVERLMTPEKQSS

`CN(c1ccc(C(F)(F)F)cc1N1CCCC1)C1CCN(C(=O)n2ccc(NS(C)(=O)=O)n2)CC1` [Example 19, N-(1-(4-(methyl(2-(pyrrolidin-1-yl)-4-(trifluoromethyl)phenyl)amino)piperidine-1-carbonyl)-1H-pyrazol-3-yl)methanesulfonamide] was tested, and the inhibition at 1 µM [1] was 0 to 25%, the inhibition at 1 µM [2] was greater than 75% and the inhibition at 1 µM [3] was 0 to 25%. The inhibition at 1 µM [4] was greater than 75%.
Work on `CC(=O)Nc1ccn(C(=O)N2CCC3(CCCN3C(=O)c3ccc(Cl)c(C4CC4)c3)CC2)n1` [Example 20, N-(1-(1-(4-chloro-3-cyclopropylbenzoyl)-1,8-diazaspiro[4.5]decane-8-carbonyl)-1H-pyrazol-3-yl)acetamide] yielded an inhibition at 1 µM [1] of 0 to 25%, an IC50 [1] of 1 to 10 µM and an inhibition at 1 µM [2] greater than 75%. It also gave an IC50 [2] of less than 0.1 µM, an inhibition at 1 µM [3] greater than 75% and an inhibition at 1 µM [4] greater than 75%.
In the case of `CS(=O)(=O)Nc1ccn(C(=O)N2CCC(Oc3ccc(Cl)c(C4CCCC4)c3)CC2)n1` [Example 21, N-(1-(4-(4-chloro-3-cyclopentylphenoxy)piperidine-1-carbonyl)-1H-pyrazol-3-yl)methanesulfonamide], the inhibition at 1 µM [1] is reported as 0 to 25%, the inhibition at 1 µM [2] is reported as greater than 75% and the inhibition at 1 µM [3] is reported as 0 to 25%. For the same compound, the inhibition at 1 µM [4] was greater than 75%.
`CC(=O)Nc1ccn(C(=O)N2CCC3(CCN(Cc4ccc(N5CCCC5)cc4C(F)(F)F)C3)CC2)n1` [Example 23, N-(1-(2-(4-(pyrrolidin-1-yl)-2-(trifluoromethyl)benzyl)-2,8-diazaspiro[4.5]decane-8-carbonyl)-1H-pyrazol-3-yl)acetamide] gave an inhibition at 1 µM [1] greater than 75%, an IC50 [1] of 0.1 to 1 µM and an inhibition at 1 µM [2] greater than 75%. The IC50 [2] was less than 0.1 µM, the inhibition at 1 µM [3] was greater than 75% and the inhibition at 1 µM [4] was greater than 75%.
`CC(=O)Nc1ccn(C(=O)N2CC3CN(Cc4ccc(Cl)c(C5(O)CCCC5)c4)CC3C2)n1` (stereo not shown) [Example 24, N-(1-(5-(4-Chloro-3-(1-hydroxycyclopentyl)benzyl)octahydropyrrolo[3,4-c]pyrrole-2-carbonyl)-1H-pyrazol-3-yl)acetamide] gave an inhibition at 1 µM [1] of 0 to 25%, an inhibition at 1 µM [2] greater than 75% and an inhibition at 1 µM [3] of 0 to 25%. The inhibition at 1 µM [4] was greater than 75%.
Compound `CC(=O)Nc1ccn(C(=O)N2CCC3(CCN(Cc4cc(C(F)(F)F)cc(C5(C(=O)O)CCCC5)c4)C3)CC2)n1` [Example 25, 1-(3-((8-(3-Acetamido-1H-pyrazole-1-carbonyl)-2,8-diazaspiro[4.5]decan-2-yl)methyl)-5-(trifluoromethyl)phenyl)cyclopentane-1-carboxylic acid] has an inhibition at 1 µM [1] of 0 to 25%, an IC50 [1] of 1 to 10 µM and an inhibition at 1 µM [2] greater than 75%. It also gave an IC50 [2] of less than 0.1 µM, an inhibition at 1 µM [3] of 0 to 25% and an inhibition at 1 µM [4] greater than 75%.
In the case of `CN(Cc1ccc(Cl)c(N2CC3COCC3C2)c1)C1(C)CCN(C(=O)n2ccc(NS(C)(=O)=O)n2)CC1` (stereo not shown) [Example 26, N-(1-(4-((4-Chloro-3-(tetrahydro-1H-furo[3,4-c]pyrrol-5(3H)-yl)benzyl)(methyl)amino)-4-methylpiperidine-1-carbonyl)-1H-pyrazol-3-yl)methanesulfonamide], the inhibition at 1 µM [1] is reported as 0 to 25%, the inhibition at 1 µM [2] is reported as greater than 75% and the inhibition at 1 µM [3] is reported as 0 to 25%. The inhibition at 1 µM [4] was 0 to 25%.
With `CS(=O)(=O)Nc1ccn(C(=O)N2C[C@H]3C[C@H](OCc4cccc(C(F)(F)F)c4)C[C@H]3C2)n1` [Example 28, N-(1-((3aR,5s,6aS)-5-((3-(trifluoromethyl)benzyl)oxy)octahydrocyclopenta[c]pyrrole-2-carbonyl)-1H-pyrazol-3-yl)methanesulfonamide] the inhibition at 1 µM [1] was greater than 75%, the inhibition at 1 µM [2] was greater than 75% and the inhibition at 1 µM [3] was greater than 75%. For the same compound, the inhibition at 1 µM [4] was greater than 75%.
`CC1(N(CC(=O)O)Cc2ccc(C(F)(F)F)cc2N2CCCC2)CCN(C(=O)n2ccc(NS(C)(=O)=O)n2)CC1` [Example 29, N-(4-methyl-1-(3-(methylsulfonamido)-1H-pyrazole-1-carbonyl)piperidin-4-yl)-N-(2-(pyrrolidin-1-yl)-4-(trifluoromethyl)benzyl)glycine] showed an inhibition at 1 µM [1] of 0 to 25%, an inhibition at 10 µM [2] of 50 to 75% and an inhibition at 1 µM [3] of 0 to 25%. It also gave an inhibition at 1 µM [4] of 0 to 25%.
Work on `C[C@H]1CN(C(=O)n2ccc(NS(C)(=O)=O)n2)CCN1Cc1cnc(Cl)c(N2CCC(F)CC2)c1` [Example 31, (S)—N-(1-(4-((6-chloro-5-(4-fluoropiperidin-1-yl)pyridin-3-yl)methyl)-3-methylpiperazine-1-carbonyl)-1H-pyrazol-3-yl)methanesulfonamide] yielded an inhibition at 1 µM [1] of 0 to 25%, an inhibition at 1 µM [2] greater than 75% and an inhibition at 1 µM [3] of 0 to 25%. For the same compound, the inhibition at 1 µM [4] was greater than 75%.
With `CC(C)(O)COc1cccc(CN2CCN(C(=O)n3ccc(NS(C)(=O)=O)n3)CC2)c1Cl` [Example 34, N-(1-(4-(2-Chloro-3-(2-hydroxy-2-methylpropoxy)benzyl)piperazine-1-carbonyl)-1H-pyrazol-3-yl)methanesulfonamide] the inhibition at 1 µM [1] was greater than 75%, the IC50 [1] was 0.1 to 1 µM and the inhibition at 1 µM [2] was greater than 75%. The IC50 [2] was less than 0.1 µM, the inhibition at 1 µM [3] was greater than 75% and the inhibition at 1 µM [4] was greater than 75%.
With `CS(=O)(=O)Nc1ccn(C(=O)N2CCC(N(Cc3ccc(C(F)(F)F)cc3N3CCCC3)C3CC3)CC2)n1` [Example 35, N-(1-(4-(cyclopropyl(2-(pyrrolidin-1-yl)-4-(trifluoromethyl)benzyl)amino)piperidine-1-carbonyl)-1H-pyrazol-3-yl)methanesulfonamide] the inhibition at 1 µM [1] was 0 to 25%, the inhibition at 1 µM [2] was greater than 75% and the inhibition at 1 µM [3] was 0 to 25%. The inhibition at 1 µM [4] was greater than 75%.
In the case of `CC(=O)Nc1ccn(C(=O)N2CCC3(CCCN3Cc3cc4cc(Cl)ccc4[nH]3)CC2)n1` [Example 38, N-(1-(1-((5-Chloro-1H-indol-2-yl)methyl)-1,8-diazaspiro[4.5]decane-8-carbonyl)-1H-pyrazol-3-yl)acetamide], the IC50 [1] is reported as 1 to 10 µM, the IC50 [2] is reported as less than 0.1 µM and the inhibition at 1 µM [3] is reported as 25 to 50%. The inhibition at 1 µM [4] was greater than 75%.
`CS(=O)(=O)Nc1ccn(C(=O)N2CC3CN(Cc4ccc(Oc5ccc(Cl)cc5)cc4)CC3C2)n1` (stereo not shown) [Example 40, N-(1-(5-(4-(4-Chlorophenoxy)benzyl)octahydropyrrolo[3,4-c]pyrrole-2-carbonyl)-1H-pyrazol-3-yl)methanesulfonamide] gave an inhibition at 1 µM [1] of 50 to 75%, an inhibition at 1 µM [2] of 25 to 50% and an inhibition at 1 µM [3] greater than 75%. For the same compound, the inhibition at 1 µM [4] was 25 to 50%.
Work on `CC(=O)Nc1ccn(C(=O)N2CCC3(CCCN3Cc3cc4cc(Cl)c(Cl)cc4[nH]3)CC2)n1` [Example 43, N-(1-(1-((5,6-Dichloro-1H-indol-2-yl)methyl)-1,8-diazaspiro[4.5]decane-8-carbonyl)-1H-pyrazol-3-yl)acetamide] yielded an inhibition at 1 µM [1] of 0 to 25%, an IC50 [1] of 1 to 10 µM and an inhibition at 1 µM [2] greater than 75%. The IC50 [2] was less than 0.1 µM, the inhibition at 1 µM [3] was 0 to 25% and the inhibition at 1 µM [4] was greater than 75%.
With `CS(=O)(=O)Nc1ccn(C(=O)N2CC3CN(Cc4cc(Cl)ccc4C(F)(F)F)CC3C2)n1` (stereo not shown) [Example 45, N-(1-(5-(5-Chloro-2-(trifluoromethyl)benzyl)octahydropyrrolo[3,4-c]pyrrole-2-carbonyl)-1H-pyrazol-3-yl)methanesulfonamide] the inhibition at 1 µM [1] was 0 to 25%, the inhibition at 10 µM [2] was 0 to 25% and the inhibition at 1 µM [3] was 0 to 25%. It also gave an inhibition at 1 µM [4] of 0 to 25%.
`CS(=O)(=O)Nc1ccn(C(=O)N2CCC3(CCN(Cc4cc(Cl)ccc4C(F)(F)F)C3)CC2)n1` [Example 46, N-(1-(2-(5-Chloro-2-(trifluoromethyl)benzyl)-2,8-diazaspiro[4.5]decane-8-carbonyl)-1H-pyrazol-3-yl)methanesulfonamide] was tested, and the inhibition at 1 µM [1] was 0 to 25%, the inhibition at 10 µM [2] was 25 to 50% and the inhibition at 1 µM [3] was 0 to 25%. The inhibition at 1 µM [4] was 0 to 25%.
`CS(=O)(=O)Nc1ccn(C(=O)N2CC3CN(Cc4ccc(N5CCCC5)cc4C(F)(F)F)CC3C2)n1` (stereo not shown) [Example 47, N-(1-(5-(4-(Pyrrolidin-1-yl)-2-(trifluoromethyl)benzyl)octahydropyrrolo[3,4-c]pyrrole-2-carbonyl)-1H-pyrazol-3-yl)methanesulfonamide] showed an inhibition at 1 µM [1] of 0 to 25%, an inhibition at 50 µM [2] of 25 to 50% and an inhibition at 1 µM [3] of 0 to 25%. The inhibition at 1 µM [4] was 0 to 25%.
In the case of `CS(=O)(=O)Nc1ccn(C(=O)N2CCC3(CCN(Cc4ccc(N5CCCC5)cc4C(F)(F)F)C3)CC2)n1` [Example 48, N-(1-(2-(4-(Pyrrolidin-1-yl)-2-(trifluoromethyl)benzyl)-2,8-diazaspiro[4.5]decane-8-carbonyl)-1H-pyrazol-3-yl)methanesulfonamide], the inhibition at 1 µM [1] is reported as 0 to 25%, the inhibition at 50 µM [2] is reported as 25 to 50% and the inhibition at 1 µM [3] is reported as 0 to 25%. For the same compound, the inhibition at 1 µM [4] was 0 to 25%.
Work on `CC(=O)Nc1ccn(C(=O)N2CCC3(CCCN3Cc3cc4cc(C(=O)O)ccc4[nH]3)CC2)n1` [Example 49, 2-((8-(3-Acetamido-1H-pyrazole-1-carbonyl)-1,8-diazaspiro[4.5]decan-1-yl)methyl)-1H-indole-5-carboxylic acid] yielded an inhibition at 1 µM [1] of 0 to 25%, an inhibition at 1 µM [2] of 25 to 50% and an inhibition at 1 µM [3] of 0 to 25%. It also gave an inhibition at 1 µM [4] of 50 to 75%.
Work on `CN(Cc1ccc(N2CCCC2)cc1C(F)(F)F)[C@H]1C[C@@H]2CN(C(=O)n3ccc(NS(C)(=O)=O)n3)C[C@@H]2C1` [Example 50, N-(1-((3aR,5r,6aS)-5-(Methyl(4-(pyrrolidin-1-yl)-2-(trifluoromethyl)benzyl)amino)octahydrocyclopenta[c]pyrrole-2-carbonyl)-1H-pyrazol-3-yl)methanesulfonamide] yielded an inhibition at 1 µM [1] of 0 to 25%, an inhibition at 1 µM [2] of 50 to 75% and an inhibition at 1 µM [3] greater than 75%. The inhibition at 1 µM [4] was 50 to 75%.
